One compound from patent publication US4349545A, “Novel erythromycin a derivatives” (Roussel Uclaf, priority 1980, dated 1982) can be followed below.

Test [1] has as its system Streptococcus pyogenes A 561. Put plainly: serial dilution liquid medium MIC, Streptococcus pyogenes A 561. The format is cell-based. The note with it: A561, 24 hours at 37° C., read-out: minimum inhibiting concentration (MIC). The essentials:
(§1)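 MIC, expressed in μg/ml, is the lowest concentration showing inhibition by transillumination after seeded tubes of medium with rising test product levels were held 24 hours at 37° C.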

Test [2] has as its system Streptococcus pyrogenes A561. Put plainly: In vivo activity in mice experimentally infected with Streptococcus pyrogenes A561. Particulars: groups of 10 male mice. Here is the method: In a second test, groups of 10 male mice weighing about 21 g were experimentally infected by an intraperitoneal injection of 0.5 ml of a 22 hour culture of Streptococcus pyrogenes A561 in Todd Hewitt bouillon with a pH of 7 diluted to 1/1000 with physiological water. The compounds of Examples 1 or 5 were administered orally 1,5 and 24 hours after the infection and the number of mice living on the fifth day was determined.

Test [3] deals with Staphylococcus aureus ATCC 6538. Put plainly: serial dilution liquid medium MIC, Staphylococcus aureus ATCC 6538 Pen-Sensibles. The class given is cell-based. Particulars: Staphylococcus aureus, ATCC6538, 24 h, read-out: minimum inhibiting concentration (MIC). As to the method: (§2) The method was a serial dilution of liquid medium test wherein a series of tubes were prepared containing the same amount of sterile nutritive medium and increasing amounts of the test product was distributed in each tube. The tubes were then seeded with a bacterial strain and incubated for 24 hours in an oven at 37° C. The degree of inhibition was determined by transillumination to determine the minimum inhibiting concentration (MIC) express in μg/ml and the results are reported in the following Tables.

In test [4] the test system is Streptococcus faecalis 5432. In words: serial dilution liquid medium MIC, Streptococcus faecalis 5432. The class given is cell-based. The note with it: Enterococcus faecalis, 24 hours at 37° C., read-out: minimum inhibiting concentration (MIC). Put shortly:
as §1

The subject of test [5] is Streptococcus faecalis 99 F 74. In words: serial dilution liquid medium MIC, Streptococcus faecalis 99 F 74. The note with it: Enterococcus faecalis, 99F74, 24 hours at 37° C., read-out: minimum inhibiting concentration (MIC). The class given is cell-based. Put shortly: as §1
For test [6], the system named is Staphylococcus aureus UC 1128. In words: serial dilution liquid medium MIC, Staphylococcus aureus UC 1128 pen-resistant. The class given is cell-based. Particulars: UC1128; Staphylococcus aureus UC 1128 pen-resistant; 24 hours at 37° C.; read-out: minimum inhibiting concentration (MIC). Put shortly:
as §1

The test system of test [7] is Bacillus subtilis ATCC 6 633. In words: serial dilution liquid medium MIC, Bacillus subtilis ATCC 6 633. The format is cell-based. Particulars: ATCC6, 24 hours at 37° C., read-out: minimum inhibiting concentration (MIC). Here is the method: as §2
The subject of test [8] is Staphylococcus aureus No. 54,146. Put plainly: In vivo activity in mice experimentally infected with Staphylococcus aureus No. 54,146. The note with it: groups of 10 mice. The essentials: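 Groups of 10 mice (about 21 g) infected intraperitoneally with 0.5 ml of a 22 h broth culture diluted 1/6. Endpoint: mortality on day 8.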
Test [9] deals with Staphylococcus aureus exp. n° 54 146. In words: serial dilution liquid medium MIC, Staphylococcus aureus exp. n° 54 146. The class given is cell-based. The note with it: Staphylococcus aureus exp. 54 146; 24 hours at 37° C.; read-out: minimum inhibiting concentration (MIC). Put shortly:
as §1

Each structure is given as a SMILES string. Converted amounts (≈) assume the structure as drawn.

With `CC[C@H]1OC(=O)[C@H](C)[C@@H](O[C@H]2C[C@@](C)(OC)[C@@H](O)[C@H](C)O2)[C@H](C)[C@@H](O[C@@H]2O[C@H](C)C[C@H](N(C)C)[C@H]2O)[C@](C)(O)C[C@@H](C)C(=NOCOCCOC)[C@H](C)[C@@H](O)[C@]1(C)O` [Example 1, 9-[0-(2-methoxyethoxy)-methyloxime] of erythromycin], the MIC in test [1] came to 0.05 µg/mL (≈ 0.0597 µM); in test [3], 0.5 µg/mL (≈ 0.597 µM); in test [4], 0.2 µg/mL (≈ 0.239 µM); in [5], 0.2 µg/mL (≈ 0.239 µM); in test [6], 2 µg/mL (≈ 2.39 µM); in [7], 0.2 µg/mL (≈ 0.239 µM). Further, the MIC in [9] came out at 1 µg/mL (≈ 1.19 µM). Also, the “No. of mice alive on 5th day” value was determined as 2 mice in test [2] (dose 0.5 mg oral, 1,5 and 24 hours after infection); 10 mice in test [2] (dose 1 mg oral, 1,5 and 24 hours after infection). The “No. of mice living on the 8th day” value came out at 10 mice in test [8] (dose 0,5mg oral, 1,5 and 24 hours after infection); 7 mice in test [8] (dose 0,25mg oral, 1,5 and 24 hours after infection).
